Experimental data published in ChEMBL document CHEMBL1201862, “PubChem BioAssay data set” (2004).
Active and inactive are the calls of the source.

How the values were obtained:
[1] = biological target: T1, DNA repair and recombination protein RAD54-like (Homo sapiens, UniProt Q92698); assay: RAD54 Holliday junction migration blockers – biochemical, fluorescence, cherry-picked samples, dose series, confirmation (AID 651657); format: functional
T1 sequence (Q92698 whole entry): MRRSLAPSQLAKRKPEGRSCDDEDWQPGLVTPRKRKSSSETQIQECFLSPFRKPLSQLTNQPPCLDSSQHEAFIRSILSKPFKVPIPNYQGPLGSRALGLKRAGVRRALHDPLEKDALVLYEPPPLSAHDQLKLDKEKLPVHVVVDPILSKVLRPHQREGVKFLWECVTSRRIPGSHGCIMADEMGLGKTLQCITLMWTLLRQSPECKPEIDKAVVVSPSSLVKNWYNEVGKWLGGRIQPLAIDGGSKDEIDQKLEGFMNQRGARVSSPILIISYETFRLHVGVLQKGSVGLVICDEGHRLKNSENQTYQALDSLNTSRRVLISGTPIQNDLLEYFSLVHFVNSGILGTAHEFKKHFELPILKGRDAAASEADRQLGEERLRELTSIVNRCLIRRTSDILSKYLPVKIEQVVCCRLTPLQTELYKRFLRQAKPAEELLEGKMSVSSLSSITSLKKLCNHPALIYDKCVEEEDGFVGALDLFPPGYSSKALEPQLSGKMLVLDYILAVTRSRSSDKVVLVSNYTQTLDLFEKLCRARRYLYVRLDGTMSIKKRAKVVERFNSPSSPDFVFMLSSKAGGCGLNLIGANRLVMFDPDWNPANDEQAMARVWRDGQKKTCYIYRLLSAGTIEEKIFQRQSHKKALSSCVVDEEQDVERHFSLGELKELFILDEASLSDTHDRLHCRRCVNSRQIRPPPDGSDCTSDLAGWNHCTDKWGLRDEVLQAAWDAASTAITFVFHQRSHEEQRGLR

[2] = biological target: T2, DNA repair protein RAD52 homolog (Homo sapiens, UniProt P43351); format: functional, biochemical
T2 sequence (P43351 whole entry): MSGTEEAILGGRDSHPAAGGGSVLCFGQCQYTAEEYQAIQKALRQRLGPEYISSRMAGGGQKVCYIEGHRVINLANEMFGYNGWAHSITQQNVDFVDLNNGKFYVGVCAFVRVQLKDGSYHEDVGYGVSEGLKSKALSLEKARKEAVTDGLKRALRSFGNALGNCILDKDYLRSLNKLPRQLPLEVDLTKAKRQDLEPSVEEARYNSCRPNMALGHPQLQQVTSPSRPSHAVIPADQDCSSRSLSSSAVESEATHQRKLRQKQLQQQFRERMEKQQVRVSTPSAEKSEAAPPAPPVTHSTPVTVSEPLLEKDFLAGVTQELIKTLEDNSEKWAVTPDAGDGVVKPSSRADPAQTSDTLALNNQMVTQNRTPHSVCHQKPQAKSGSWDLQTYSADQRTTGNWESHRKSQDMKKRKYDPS

[3] = biological target: T3, Short transient receptor potential channel 4 (Mus musculus, UniProt Q9QUQ5); assay: block of DAMGO-driven TRPC4 calcium entry – cell-based, HEK293 TRPC4/mu-opioid, Fluo-4 calcium, dose response (AID 434942); format: functional;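 further: potency of inhibitors blocking the TRPC4 calcium response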
T3 sequence (Q9QUQ5 whole entry): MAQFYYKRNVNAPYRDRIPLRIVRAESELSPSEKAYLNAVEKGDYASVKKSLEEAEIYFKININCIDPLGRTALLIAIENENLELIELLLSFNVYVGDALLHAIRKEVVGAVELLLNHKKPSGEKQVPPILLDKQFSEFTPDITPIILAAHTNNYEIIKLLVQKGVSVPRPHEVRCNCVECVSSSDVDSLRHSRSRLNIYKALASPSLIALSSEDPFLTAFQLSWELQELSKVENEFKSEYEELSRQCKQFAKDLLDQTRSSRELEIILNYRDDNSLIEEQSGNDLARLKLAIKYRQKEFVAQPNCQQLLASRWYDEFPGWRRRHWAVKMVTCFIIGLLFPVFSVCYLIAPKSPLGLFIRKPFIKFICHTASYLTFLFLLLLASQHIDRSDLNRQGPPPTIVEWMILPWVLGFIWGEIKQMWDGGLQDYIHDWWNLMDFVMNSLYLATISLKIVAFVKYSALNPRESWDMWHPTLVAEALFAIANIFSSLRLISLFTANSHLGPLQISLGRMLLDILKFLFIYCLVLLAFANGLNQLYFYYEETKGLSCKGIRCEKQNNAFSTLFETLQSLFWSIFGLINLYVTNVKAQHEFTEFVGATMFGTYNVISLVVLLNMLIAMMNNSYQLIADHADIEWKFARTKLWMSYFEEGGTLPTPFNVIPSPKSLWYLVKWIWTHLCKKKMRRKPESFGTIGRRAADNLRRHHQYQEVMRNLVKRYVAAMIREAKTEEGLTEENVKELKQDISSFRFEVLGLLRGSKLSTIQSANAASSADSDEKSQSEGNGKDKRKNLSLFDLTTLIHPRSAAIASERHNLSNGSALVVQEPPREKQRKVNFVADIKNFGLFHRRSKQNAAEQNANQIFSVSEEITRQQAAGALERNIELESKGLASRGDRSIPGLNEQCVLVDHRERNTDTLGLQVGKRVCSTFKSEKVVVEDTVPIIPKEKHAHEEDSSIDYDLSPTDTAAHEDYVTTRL

[4] = HEK-293T viability loss after treatment – luminescence, T-cell screen hits, cytotoxicity control for TCR NF-kB inhibitor project, dose response (AID 489026); format: functional, cell-based;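 further: cells exposed to compound about 14 hours before the viability readout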
[5] = HIV-1 Vif–A3G interaction blockers – biochemical, TR-FRET, GST-Vif 1-94, biotin-A3G peptide, dose response retest, primary screen (AID 1117319); format: functional;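 further: TR-FRET signal of purified GST-Vif binding a biotinylated A3G peptide; inhibitors lower the FRET signal by blocking Vif and A3G binding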
[6] = Luminescence Cell-Based Dose Response HTS to Identify Inhibitors of 5'UTR Stem-Loop Driven Prion Protein mRNA Translation in H4 Neuroglioblastoma Cells. [Related pubchem assays: 1827 (Project Summary), 1813 (Primary HTS)]; format: functional
[7] = luciferase reporter signal suppression in cells – H4 neuroglioma cells, luminescence, dose response (AID 1990); format: functional, cell-based
BJ [8] = assay: BJ-TERT-LT-ST fibroblast viability loss – cell-based, RAS-independent, luminescence, dose response (AID 1935); format: functional; conditions: Homo sapiens;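 further: BJ fibroblasts immortalized with TERT plus LT and ST oncogenes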
BJ [9] = assay: cells; format: functional, cell-based; conditions: Homo sapiens
BJ [10] = assay: BJ-TERT fibroblast viability loss – cell-based, RAS-independent, luminescence, dose response (AID 1933); format: functional; conditions: Homo sapiens
[11] = alpha-synuclein stem-loop luciferase translation blockers – H4 neuroglioma cells, luminescence, confirmation (AID 1988); format: functional, cell-based
[12] = Trypanosoma cruzi growth suppression in host cells – NIH3T3 host cells, beta-gal luminescence, confirmation (AID 2044); format: functional, cell-based;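 further: intracellular parasites grown in NIH/3T3 mouse fibroblasts as host cells; luminescent beta-galactosidase reporter signal from transgenic T. cruzi replicating inside host cells; inhibitors lower the luminescence signal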
[13] = NIH3T3 cell viability loss – ATP luminescence, mouse fibroblasts, counter-screen, dose response (AID 2010); format: functional, cell-based;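 further: cells exposed to compound for about 90 hours before reading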
Nonstructural protein 1 = Nonstructural protein 1 (Influenza A virus, UniProt Q194T2); format: functional, Influenza A virus (A/California/07/2009(H1N1))
[14] = DRD fibroblast viability loss – cell-based, non-viral oncogenic, luminescence, dose response (AID 1934); format: functional; conditions: Homo sapiens
INS1 = assay: INS-1E survival protection against cytokine death – cell-based, luminescence, retest, dose response (AID 449756); format: functional; conditions: Rattus norvegicus, INS1;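 further: cell death triggered by IL-1 beta plus TNF-alpha plus IFN-gamma mixture; protective hits raise ATP signal compared with cytokine alone wells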
[15] = general mammalian cell viability loss – inhibitor set, cherry-pick, set 2, cytotoxicity control for miR-122 modulator project, dose response (AID 720697); format: functional, cell-based
[16] = intracellular Trypanosoma cruzi inhibitors in host cells – cell-based, plate reader, cherry-pick samples, set 3, dose response (AID 651818); format: functional;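 further: compounds incubated with infected cells for about four days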

Sequence of Nonstructural protein 1 (Q194T2 whole entry): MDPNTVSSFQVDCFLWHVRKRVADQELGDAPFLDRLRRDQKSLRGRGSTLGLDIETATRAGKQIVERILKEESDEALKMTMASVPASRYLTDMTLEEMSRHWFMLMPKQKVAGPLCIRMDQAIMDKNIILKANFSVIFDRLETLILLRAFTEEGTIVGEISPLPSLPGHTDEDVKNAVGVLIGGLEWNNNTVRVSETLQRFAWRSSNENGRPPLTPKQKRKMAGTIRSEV

## COc1cccc(-c2cc3nc(NCCCN(C)C)n(C)c(=O)c3s2)c1
[1]
  AC50: 30.6 µM (active)
[2]
  AC50: 7.04 µM (active)

## c1ccc(Cn2c(NCc3ccco3)nc3ccccc32)cc1
[3]
  EC50: 0.596 µM (active)

## COc1cc(OC)c(/C=C2\C(=O)Nc3ccccc32)c(OC)c1
[4]
  IC50: 69.6 µM (inactive)

## CCN1CCN(c2nc(N)c([N+](=O)[O-])c(Nc3cccc(C)c3)n2)CC1
[1]
  AC50: 12.4 µM (active)

## COc1cccc(-n2c(Cc3cc(O)nc(O)n3)nnc2SCC(=O)NC2CCCC2)c1
[5]
  IC50: > 100 µM (active)

## C/C(=N\NC(=O)c1ccccc1Cl)c1ccccn1
[6]
  EC50: 6.44 µM (active)
[7]
  EC50: 9.67 µM (active)
BJ [8]
  EC50: 12.2 µM (active)
BJ [9]
  EC50: 13.5 µM (active)
BJ [10]
  EC50: 14.8 µM (active)
[11]
  EC50: 5.67 µM (active)
[12]
  EC50: 1.5 µM (active)
[13]
  EC50: 5.56 µM (active)
Nonstructural protein 1
  IC50: 11.1 µM (active)
[14]
  EC50: 17.5 µM (active)
INS1
  AC50: 1.4 µM (active)

## CN1C[C@H]2[C@@H](c3ccccc31)[C@@H](CO)N2C(=O)C1CCOCC1
[15]
  AC50: < 0.195 µM (active)

## COc1cc(C2=NOC(C(=O)NCc3ccc(F)cc3)C2)cc(OC)c1OC (stereo not drawn)
[4]
  IC50: > 80 µM (inactive)

## C[C@@H]1CCCCO[C@H](CN(C)Cc2ccc(C(F)(F)F)cc2)[C@@H](C)CN([C@H](C)CO)C(=O)c2cc(NS(=O)(=O)c3ccc(Cl)cc3)ccc2O1
[16]
  AC50: 3.33 µM (active)

## NCCOc1ccccc1Cc1ccccc1
[5]
  IC50: > 100 µM (active)

## C[C@@H]1CCCCO[C@H](CN(C)Cc2ccc(Cl)c(Cl)c2)[C@@H](C)CN([C@H](C)CO)C(=O)c2cc(NC(=O)Nc3ccccc3)ccc2O1
[16]
  AC50: 3.65 µM (active)

## Cc1ccc2oc(=O)c3cc(C(=O)NCCCN4C(C)CCCC4C)sc3c2c1 (stereo not drawn)
[1]
  AC50: 100 µM (inactive)

## O=C(CN1CCCCCC1)N1c2ccccc2Sc2ccccc21
[3]
  EC50: 1.68 µM (active)

## C[C@H]1CN([C@@H](C)CO)C(=O)c2cc(NC(=O)Nc3ccccc3)ccc2O[C@H]1CN(C)Cc1ccc(C(=O)Nc2ccccc2N)cc1
[16]
  AC50: 4.89 µM (active)

## O=C(c1cnn2cccnc12)N1CCN(Cc2ccc3c(c2)OCO3)CC1
[5]
  IC50: > 100 µM (active)

## Cc1ccc(N(C)S(=O)(=O)c2ccc(-c3cnc(C4CC4)o3)cc2)cc1
[4]
  IC50: > 80 µM (inactive)

## COC(=O)Nc1sc2c(c1C(=O)NCc1ccco1)CCCC2
[5]
  IC50: > 100 µM (active)
